The text below walks through data of US20250243488A1, “METHODS OF MODULATING PROGRANULIN EXPRESSION USING ANTISENSE OLIGONUCLEOTIDES TARGETING REGULATORY RNAS” (Camp4 Therapeutics Corporation, priority 2022, published 2025).

Oligonucleotides are written 5' to 3', each unit as a sugar letter and its base; * is a phosphorothioate linkage, no mark a phosphodiester; rarer units and linkages stand in square brackets, end groups in braces. Plain capitals give the bases only. e = 2'-O-(2-methoxyethyl) (MOE); l = locked nucleic acid (LNA); [5mC] = 5-methylcytosine

For one data set, the system named is human GRN mRNA. In words: hGRN mRNA qPCR in HepG2 cells transfected with ASOs. It is filed as cell-based. The following applies: 100 nM ASO, 48 hours post-transfection. As to the method:
To assess the ability of ASOs targeting hGRN paRNA to modulate the expression of human GRN mRNA, 110 ASOs targeting hGRN paRNA (− strand) were tested in the hepatocellular carcinoma cell lineHepG2. 48 hours post-transfection, cells were collected for mRNA analysis via qPCR.

A further data set has as its system mGrn mRNA. In words: mGrn mRNA qPCR in Neuro2a cells transfected with ASOs. Type of data set: cell-based, mouse. As to conditions: for mGRN mRNA FC: Table 14, 100 nM, 48 hours, normalized to sNTC3; for 40 nM FC (mGrn mRNA) / 80 nM FC (mGrn mRNA) / 160 nM FC (mGrn mRNA): transfection.

Turning to “CO-3495: ASO targeting hGRN paRNA (− strand) (antisense eT*eT*eA*eG*eA*eA*e[5mC]*e[5mC]*e[5mC]*e[5mC]*eT*eG*e[5mC]*e[5mC]*eA*e[5mC]*eA*e[5mC]*eG*eA)”, in the data set with human GRN mRNA, the “hGRN mRNA FC” value stood at 0.9 FC.
On to “CO-3588: ASO targeting the Grn promoter (− strand) (antisense eG*eT*e[5mC]*eT*eG*eT*eA*eA*eA*eG*eA*eA*e[5mC]*eA*eA*eG*eA*eT*eA*eT)”, for which the “mGRN mRNA FC” value in the data set on mGrn mRNA (Neuro2a) is reported as 0.9 FC.
On the same count and under the same terms, with “CO-3549: ASO targeting the Grn promoter (− strand) (antisense eA*eG*e[5mC]*eT*eA*eA*eT*eT*eT*e[5mC]*e[5mC]*eG*e[5mC]*e[5mC]*eT*e[5mC]*eT*e[5mC]*e[5mC]*e[5mC])” the figure was 1.4 FC.
As for “CO-5295: CO-3544 modified to include PO/PS bonds (antisense eG*eT*eT*e[5mC]*eT*e[5mC]*e[5mC]*e[5mC]*eT*eA*eG*e[5mC]*eTeGeTeGeT*eA*eG*eT)”, in the data set with mGrn mRNA (Table 15, Neuro2a), the “40 nM FC (mGrn mRNA)” value worked out at 1.1 FC, the “80 nM FC (mGrn mRNA)” value is listed as 1.3 FC and the “160 nM FC (mGrn mRNA)” value came out at 1.4 FC.
As to “CO-5301: CO-3544 modified to include PO/PS bonds (antisense lG*lT*eT*l[5mC]*lT*e[5mC]*l[5mC]*e[5mC]*lT*eA*lG*e[5mC]*lT*eG*lT*eG*lT*eA*lG*lT)”, in the data set with mGrn mRNA (Table 15, Neuro2a), the “40 nM FC (mGrn mRNA)” value stood at 0.9 FC, the “80 nM FC (mGrn mRNA)” value was found to be 1.0 FC and the “160 nM FC (mGrn mRNA)” value is listed as 0.7 FC.
For “CO-3574: ASO targeting the Grn promoter (− strand) (antisense eG*e[5mC]*eT*e[5mC]*eT*e[5mC]*e[5mC]*eT*eA*eA*e[5mC]*eT*eG*eT*eG*eG*eG*eT*eG*e[5mC])”, in the data set with mGrn mRNA (Neuro2a), the “mGRN mRNA FC” value turned out to be 1.3 FC.
For “CO-3554: ASO targeting the Grn promoter (− strand) (antisense eG*eG*e[5mC]*eT*e[5mC]*eT*eT*eT*e[5mC]*eT*e[5mC]*eT*eT*eT*e[5mC]*eG*eG*eA*e[5mC]*eG)”, in the data set with mGrn mRNA (Neuro2a), the “mGRN mRNA FC” value amounted to 1.2 FC.
In the case of “CO-3582: ASO targeting the Grn promoter (− strand) (antisense e[5mC]*eA*e[5mC]*eA*eT*e[5mC]*eT*eA*e[5mC]*eA*eG*eT*eG*e[5mC]*e[5mC]*e[5mC]*eG*eG*eT*eA)”, the “mGRN mRNA FC” value with mGrn mRNA (Neuro2a) is on record as 1.1 FC.
On to “CO-4083: ASO based on parent ASOs CO-3544 and CO-3595, different modifications and base walking (antisense e[5mC]*e[5mC]*eT*eG*eA*lA*e[5mC]*eT*lG*eT*eA*lT*eG*eG*l[5mC]*eT*eG*eA*e[5mC]*e[5mC])”, for which, in the data set on mGrn mRNA (Table 16, Neuro2A), the “40 nM FC (mGrn mRNA)” value turned out to be 1.3 FC, the “80 nM FC (mGrn mRNA)” value is listed as 1.4 FC and the “160 nM FC (mGrn mRNA)” value came to 1.6 FC.
For “CO-3587: ASO targeting the Grn promoter (− strand) (antisense eT*eA*e[5mC]*e[5mC]*e[5mC]*eA*eA*eG*eG*eA*eA*eA*eG*eG*eA*eT*eT*e[5mC]*eA*e[5mC])”, in the data set with mGrn mRNA (Neuro2a), the “mGRN mRNA FC” value was 1.9 FC.
Take “CO-3569: ASO targeting the Grn promoter (− strand) (antisense eG*eG*eA*eA*eT*eG*eT*eG*eA*eA*e[5mC]*eT*eG*eA*eG*eT*eA*eG*eA*eA)”: the “mGRN mRNA FC” value with mGrn mRNA (Neuro2a) amounted to 1.2 FC.
For the substance “CO-5300: CO-3544 modified to include PO/PS bonds (antisense eG*eT*eTe[5mC]eTe[5mC]e[5mC]e[5mC]*eT*eA*eG*e[5mC]*eT*eG*eT*eG*eT*eA*eG*eT)”, in the data set with mGrn mRNA (Table 15, Neuro2a), the “40 nM FC (mGrn mRNA)” value came out at 1.3 FC, the “80 nM FC (mGrn mRNA)” value is recorded as 1.4 FC and the “160 nM FC (mGrn mRNA)” value is on record as 1.4 FC.
Consider “CO-5308: CO-3595 modified to include varying PO/PS internucleotide bonds (antisense e[5mC]*e[5mC]*eT*eG*eA*eA*e[5mC]*eT*eG*eT*eA*eT*eGeGe[5mC]eTeG*eA*e[5mC]*e[5mC])”, for which, in the data set on mGrn mRNA (Table 16, Neuro2A), the “40 nM FC (mGrn mRNA)” value was found to be 1.3 FC, the “80 nM FC (mGrn mRNA)” value was 1.4 FC and the “160 nM FC (mGrn mRNA)” value came to 2.0 FC.
Take “CO-5304: CO-3595 modified to include varying PO/PS internucleotide bonds (antisense e[5mC]*e[5mC]*eT*eG*eAeAe[5mC]eTeGeTeAeTeGeGe[5mC]eTeG*eA*e[5mC]*e[5mC])”: in the data set on mGrn mRNA (Table 16, Neuro2A), the “40 nM FC (mGrn mRNA)” value was determined as 1.4 FC, the “80 nM FC (mGrn mRNA)” value was 1.6 FC and the “160 nM FC (mGrn mRNA)” value was found to be 2.2 FC.
For “CO-5309: CO-3595 modified to include varying PO/PS internucleotide bonds (antisense e[5mC]*e[5mC]*eTeGeAeAe[5mC]eTeGeTeAeTeGeGe[5mC]eT*eG*eA*e[5mC]*e[5mC])”, in the data set on mGrn mRNA (Table 16, Neuro2A), the “40 nM FC (mGrn mRNA)” value is 1.3 FC, the “80 nM FC (mGrn mRNA)” value amounted to 1.7 FC and the “160 nM FC (mGrn mRNA)” value was determined as 2.0 FC.
On to “CO-3552: ASO targeting the Grn promoter (− strand) (antisense e[5mC]*e[5mC]*eT*eT*eG*eG*e[5mC]*e[5mC]*e[5mC]*e[5mC]*e[5mC]*eA*eG*eA*eG*e[5mC]*eT*e[5mC]*eA*eA)”, for which the “mGRN mRNA FC” value in the data set on mGrn mRNA (Neuro2a) is listed as 1.1 FC.
Regarding “CO-3595: ASO targeting the Grn promoter (− strand) (antisense e[5mC]*e[5mC]*eT*eG*eA*eA*e[5mC]*eT*eG*eT*eA*eT*eG*eG*e[5mC]*eT*eG*eA*e[5mC]*e[5mC])”, the “mGrn mRNA upregulation” value with mGrn mRNA (Neuro2a, dose-dependent, normalized to sNTC3 (FIG. 13)) is recorded as no more than 1.8 fold. Further, the “mGRN mRNA FC” value with mGrn mRNA (Neuro2a) is reported as 2.3 FC. Further, in the data set with mGrn mRNA (Table 16, Neuro2A), the “40 nM FC (mGrn mRNA)” value was 1.2 FC, the “80 nM FC (mGrn mRNA)” value stood at 1.3 FC and the “160 nM FC (mGrn mRNA)” value was 1.4 FC.
Turning to “CO-3584: ASO targeting the Grn promoter (− strand) (antisense eG*e[5mC]*eT*eT*e[5mC]*eA*eA*eT*eT*eT*eA*eA*eT*eG*e[5mC]*eA*eG*eT*eG*e[5mC])”, the “mGRN mRNA FC” value with mGrn mRNA (Neuro2a) turned out to be 1.1 FC.
With “CO-5297: CO-3544 modified to include PO/PS bonds (antisense eG*eT*eTe[5mC]eTe[5mC]e[5mC]e[5mC]eTeAeGe[5mC]eTeG*eT*eG*eT*eA*eG*eT)”, in the data set on mGrn mRNA (Table 15, Neuro2a), the “40 nM FC (mGrn mRNA)” value stood at 1.0 FC, the “80 nM FC (mGrn mRNA)” value was determined as 1.1 FC and the “160 nM FC (mGrn mRNA)” value was determined as 1.2 FC.
On to “CO-3565: ASO targeting the Grn promoter (− strand) (antisense eG*eA*eG*e[5mC]*eT*eG*eA*e[5mC]*e[5mC]*eG*e[5mC]*e[5mC]*eA*eG*eA*eT*eG*e[5mC]*e[5mC]*eT)”, for which the “mGRN mRNA FC” value with mGrn mRNA (Neuro2a) was 1.6 FC.
As for “CO-3557: ASO targeting the Grn promoter (− strand) (antisense eT*eG*eT*e[5mC]*eG*eG*eA*eA*eA*eG*e[5mC]*eT*eG*e[5mC]*eA*eG*eG*e[5mC]*e[5mC]*eT)”, the “mGRN mRNA FC” value with mGrn mRNA (Neuro2a) was 1.6 FC.
Take “CO-3594: ASO targeting the Grn promoter (− strand) (antisense e[5mC]*eA*eT*eG*eG*eT*e[5mC]*eT*e[5mC]*eT*eA*eT*eT*e[5mC]*eA*e[5mC]*e[5mC]*e[5mC]*eA*e[5mC])”: the “mGRN mRNA FC” value with mGrn mRNA (Neuro2a) worked out at 1.6 FC.
With “CO-3556: ASO targeting the Grn promoter (− strand) (antisense eA*eG*eG*eA*e[5mC]*eA*eG*eG*eA*eA*e[5mC]*e[5mC]*eA*e[5mC]*e[5mC]*e[5mC]*e[5mC]*eA*e[5mC]*eT)”, the “mGRN mRNA FC” value with mGrn mRNA (Neuro2a) was 1.3 FC.
For “CO-5291: CO-3544 modified to include PO/PS bonds (antisense eG*eT*eT*e[5mC]*eTe[5mC]e[5mC]e[5mC]eTeAeGe[5mC]eTeGeTeGeT*eA*eG*eT)”, in the data set on mGrn mRNA (Table 15, Neuro2a), the “40 nM FC (mGrn mRNA)” value was 0.9 FC, the “80 nM FC (mGrn mRNA)” value was determined as 1.0 FC and the “160 nM FC (mGrn mRNA)” value worked out at 0.9 FC.
In the case of “CO-3546: ASO targeting the Grn promoter (− strand) (antisense eG*eA*eA*eA*eT*eT*e[5mC]*eA*eT*eT*eT*e[5mC]*e[5mC]*e[5mC]*e[5mC]*eT*e[5mC]*eG*eA*e[5mC])”, in the data set with mGrn mRNA (Neuro2a), the “mGRN mRNA FC” value was found to be 1.4 FC.
As for “CO-5305: CO-3595 modified to include varying PO/PS internucleotide bonds (antisense e[5mC]*e[5mC]*eT*eG*eA*eA*e[5mC]eTeGeTeAeTeGeGe[5mC]eTeG*eA*e[5mC]*e[5mC])”, in the data set with mGrn mRNA (Table 16, Neuro2A), the “40 nM FC (mGrn mRNA)” value is on record as 1.2 FC, the “80 nM FC (mGrn mRNA)” value is 1.4 FC and the “160 nM FC (mGrn mRNA)” value worked out at 1.6 FC.
As to “CO-5292: CO-3544 modified to include PO/PS bonds (antisense eG*eT*eT*e[5mC]*eT*e[5mC]*e[5mC]e[5mC]eTeAeGe[5mC]eTeGeTeGeT*eA*eG*eT)”, in the data set on mGrn mRNA (Table 15, Neuro2a), the “40 nM FC (mGrn mRNA)” value was determined as 1.1 FC, the “80 nM FC (mGrn mRNA)” value is 1.1 FC and the “160 nM FC (mGrn mRNA)” value was determined as 1.1 FC.
With “CO-5307: CO-3595 modified to include varying PO/PS internucleotide bonds (antisense e[5mC]*e[5mC]*eT*eG*eA*eA*e[5mC]*eT*eG*eT*eAeTeGeGe[5mC]eTeG*eA*e[5mC]*e[5mC])”, in the data set with mGrn mRNA (Table 16, Neuro2A), the “40 nM FC (mGrn mRNA)” value stood at 1.0 FC, the “80 nM FC (mGrn mRNA)” value came out at 1.1 FC and the “160 nM FC (mGrn mRNA)” value turned out to be 1.1 FC.
In the case of “CO-3580: ASO targeting the Grn promoter (− strand) (antisense eG*e[5mC]*e[5mC]*eA*e[5mC]*eT*e[5mC]*eT*e[5mC]*e[5mC]*e[5mC]*e[5mC]*eA*eT*eT*e[5mC]*eA*eA*eA*e[5mC])”, the “mGRN mRNA FC” value in the data set with mGrn mRNA (Neuro2a) is reported as 1.2 FC.
Consider “CO-3586: ASO targeting the Grn promoter (− strand) (antisense eA*eA*eT*e[5mC]*eT*eA*eG*eT*eT*eT*e[5mC]*eA*eA*eG*eT*eT*e[5mC]*e[5mC]*eT*e[5mC])”, for which, in the data set on mGrn mRNA (Neuro2a), the “mGRN mRNA FC” value turned out to be 1.4 FC.
